Assay results: patent US9763995B2, “Polymer conjugates of protegrin peptides” (Nektar Therapeutics, priority 2008, dated 2017)

Key:
rat red blood cells = assay: Hemolysis assay; format: cell-based
Experimental: Hemolysis assay. Approximately 10 mL of blood was drawn from one adult rat into Na Heparin tube and kept in ice until use. Red blood cells were washed three times with 10 mL of cold DPBS ((−) CaCl2 and (−) MgCl2) and collected by sequential centrifugation at 3,000 g for 5 min at 4° C. Pellets of red blood cells were resuspended with DPBS ((−) CaCl2 and (−) MgCl2) and the total volume was brought up to initial volume of blood drawn. One mL of resuspended red blood cells was resuspended with 49 mL of DPBS ((−) CaCl2 and (−) MgCl2). Incubation mixture was prepared by 400 fold dilution of stock solution of test compounds with final volume of 800 μl. Final concentration of test compounds was equimolar to that of respective unconjugated compounds. Hemolysis incubation was done at 37° C. with mild agitation. For releasable conjugates, test compounds were preincubated in 1×PBS at 37° C. prior to hemolysis assay. Incubation mixture was centrifuged at 3,000 g for 5 min at 4° C., and the absorbance at 550 nm was read from supernatant. […] [table]

[1] = Pharmacokinetic studies of the protegrin conjugates, single IV dose; format: in vivo, Sprague-Dawley rats; details: equivalent protein mass 1.6 mg/kg IV
Experimental: Twenty one (21) adult male Sprague-Dawley rats with indwelling jugular vein and carotid artery catheters (JVC/CAC) (Charles River Labs, Hollister, Calif.) were utilized for this study. The weight range of the animals was 313-346 grams. All animals were food fasted overnight. Prior to dosing the rats were weighed, the tails and cage cards were labeled for identification and the doses were calculated. Anesthesia was induced and maintained with 3.0-5.0% isoflurane. The JVC and CAC were externalized, flushed with HEP/saline (10 IU/mL HEP/mL saline), plugged, and labeled to identify the jugular vein and carotid artery The predose sample was collected from the JVC. […] Following the last collection point, the animals were euthanized. Bioanalytical analysis: analysis of the plasma samples was conducted using non-validated LC-MS/MS methods. Noncompartmental PK data analysis and report preparation was completed. PK analysis was performed using WinNonlin (Version 5.2, Mountain View, Calif.-94014). Concentrations in plasma that were below LLOQ were replaced with zeros prior to generating Tables and PK analysis. The following PK parameters were estimated using plasma concentration-time profile of each animal: • C0 Extrapolated concentration to time “zero” • Cmax Maximum (peak) concentration • AUCall Area under the concentration-time from zero to time of last concentration value • T1/2(Z) Terminal elimination half-life • AUCinf Area under the concentration-time from zero to time infinity • Tmax Time to reach maximum or peak concentration following administration • CL Total body clearance • Vz Volume of distribution based on terminal phase • Vss Volume of distribution at steady state • MRTlast Mean residence time to last observable concentration

[2] = non-releasable PEG conjugates, Sprague Dawley rats, Mean ± SD
[3] = protegrin-1 in plasma, rats, native or via releasable PEG conjugate

CC(C)C[C@H](NC(=O)[C@H](CCCNC(=N)N)NC(=O)CNC(=O)CNC(=O)[C@@H](N)CCCNC(=N)N)C(=O)N[C@H]1CSSC[C@@H](C(=O)N[C@H](C(=O)NCC(=O)N[C@@H](CCCNC(=N)N)C(N)=O)C(C)C)NC(=O)[C@H](C(C)C)NC(=O)[C@@H]2CSSC[C@H](NC(=O)[C@H](Cc3ccc(O)cc3)NC1=O)C(=O)N[C@@H](CCCNC(=N)N)C(=O)N[C@@H](CCCNC(=N)N)C(=O)N[C@@H](CCCNC(=N)N)C(=O)N[C@@H](Cc1ccccc1)C(=O)N2 [Protegrin-1]
hemolytic effects / hemolytic activity (rat red blood cells; rat red blood cells, 37° C., relative to 100% hemolysis by 0.25% Triton X-100, releasable conjugates preincubated in 1XPBS at 37° C.): comparable to literature data
hemolytic activity retained compared to PG1 preincubated for 0 hr (rat red blood cells; red cells of rat, 96 h): about 60%
Tmax ([1]; male, Sprague-Dawley, rat, in vivo, protegrin-1 in plasma, rats, native or via releasable PEG conjugate): 1.8 min
AUCINF [1, 2]: 1160 ± 351 ng·h/mL
CL [1, 2]: 1470 ± 434^ mL/hr/kg
Cmax [1, 2]: 2050 ± 601 ng/mL
MRTlast [1, 2]: 31.2 ± 3 min
T1/2 [1, 2]: 21 ± 6 min
Vss [1, 2]: 0.848 ± 0.36 L/kg
AUCINF [1, 3]: 1160 ng·h/mL
Cmax [1, 3]: 2050 ng/mL
MRTlast [1, 3]: 31.2 min
T1/2 [1, 3]: 21 min
